Test [1] relates to Pythium ultimum, pathogen of cucumber damping-off. As to the kind of experiment: Cucumber damping-off seed treatment test (Test Example 1). It is filed as in vivo. As to conditions: 18° C., 13 days. An excerpt:
An acetone solution of ethaboxam and an acetone solution of metconazole were mixed to prepare mixed liquids containing ethaboxam and metconazole in predetermined concentration. These mixed liquids were adhered on the surface of cucumber (Sagamihanjiro) seeds and allowed to stand still overnight. A plastic pot was filled with sandy soil and the seeds were disseminated on it. Then the seeds were covered with sandy soil which had been mixed with a bran medium on which Pythium ultimum, pathogen of cucumber damping-off, had been allowed to grow. They were irrigated and allowed to grow at 18° C. under humidity for 13 days, and thereafter control effect was checked.
As a comparison, acetone solutions containing ethaboxam in the predetermined concentration and acetone solutions containing metconazole in the predetermined concentration were prepared and subjected to similar tests.
In order to calculate the control value, the incidence of disease was also determined in the case in which the seeds had not been treated with the agent.
The incidence of disease was calculated by Equation 1 and the control value was calculated by Equation 2 based on the incidence of disease.
Incidence of disease=(Number of no emerging seedlings and number of seedlings in which development of disease was observed)×100/(Number of total disseminated seeds) “Equation 1” Control value=100×(A−B)/A “Equation 2”;
A: Incidence of disease of plant in untreated area
B: Incidence of disease of plant in treated area
Generally, the control value expected for the case in which the given two kinds of active ingredient compounds are mixed and used for the treatment, the so-called control value expectation is calculated from the following Colby's calculating equation. E=X+Y−(X×Y)/100 “Equation 3”;
X: Control value (%) when active ingredient compound A is used for treatment in M g per 100 kg or M ppm of seeds
Y: Control value (%) when active ingredient compound B is used for treatment in N g per 100 kg or N ppm of seeds
E: Control value (%) expected for the case in which active ingredient compound A in M g per 100 kg or M ppm of seeds and active ingredient compound B in N g per 100 kg or N ppm of seeds are mixed and used for treatment (hereinbelow referred to as “control value expectation”) “Synergetic effect (%)” (Actual control value)×100/(Control value expectation)

Test [2] has as its system pathogen of cucumber gray mold. As to the kind of experiment: Cucumber gray mold foliar spray test (Test Example 2). To be noted: 12.5 ppm of each test compound; for Actual control value: spray to stalk and leaves of cucumber seedlings, 12° C., high humidity, 6 days. It is filed as in vivo, Botrytis cinerea. The source says:
A plastic pot was filled with sandy soil and cucumber (Sagamihanjiro) seeds were disseminated on it. Then the seeds were allowed to grow in a glasshouse for 12 days. A wettable powder of ethaboxam and a wettable powder of metconazole were individually diluted with water and then mixed to prepare mixed liquids containing ethaboxam and metconazole in predetermined concentration. These mixed liquids were sprayed to the stalk and leaves of cucumber seedlings to adhere them sufficiently on the surface of leaves of the seedlings. After spraying, the cucumber seedlings were air-dried and a PDA medium containing spores of pathogen of cucumber gray mold was placed onto the leaves of the seedlings. Then the plants were allowed to stand at 12° C. under high humidity for 6 days, and thereafter control effect was checked.
As a comparison, mixed liquids containing ethaboxam and triadimefon, mixed liquids containing ethaboxam and triadimenol, and mixed liquids containing ethaboxam and imazalil were prepared, sprayed to the stalk and leaves of cucumber seedlings to adhere them sufficiently on the surface of leaves of the seedlings, and subjected to similar tests, respectively. In addition, the above wettable powder of ethaboxam and the above wettable powder of metconazole were individually diluted with water to prepare liquids containing ethaboxam in predetermined concentration and liquids containing metconazole in predetermined concentration and then subjected to similar tests.
The incidence of disease was calculated by Equation 4 and the control value was calculated by Equation 2 based on the incidence of disease.
Incidence of disease=(diameter of leaf spot of plant in treated area)/(diameter of leaf spot of plant in untreated area)×100 “Equation 4”

The structures appear in SMILES notation.

Turning to `CC1(C)CCC(Cc2ccc(Cl)cc2)C1(O)Cn1cncn1` (stereo not drawn) [Metconazole], the Actual control value in test [1] (Metconazole 5 g/100 kg-seed alone), in test [1] (Metconazole 10 g/100 kg-seed alone), in test [1] (Metconazole 20 g/100 kg-seed alone) and in test [2] was 0% throughout. The compound also gave a Control value expectation in test [2] of 0%.
As for `CCNc1nc(CC)c(C(=O)NC(C#N)c2cccs2)s1` (stereo not drawn) [Ethaboxam], the values for the Actual control value in test [1] (Ethaboxam 5 g/100 kg-seed alone), in test [1] (Ethaboxam 10 g/100 kg-seed alone) and in test [2] were 25%, 58% and 0%, respectively. The Control value expectation in test [2] is listed as 0%.

The record behind these values is patent US8324131B2, “Composition and method for controlling plant diseases” (Sumitomo Chemical Company, Limited, priority 2008, dated 2012).
